Test [1] has as its system MDA-MB-231. The test is described as follows: Antiproliferative activity against human MDA-MB-231 cells assessed as reduction in cell proliferation incubated for 48 hrs by CCK-8 assay. Format: functional, cell-based. To be noted: MDA-MB-231, 48 h. (In general: Tetrazolium dyes change colour on reduction, which living cells bring about.)
A further test deals with HT-1080. Briefly: Antiproliferative activity against human HT-1080 cells assessed as inhibition of cell growth incubated for 48 hrs by CCK-8 assay. Format: functional, cell-based. To be noted: HT-1080, 48 h.
Another test relates to SW1990. The test is described as follows: Antiproliferative activity against human SW1990 cells assessed as inhibition of cell growth incubated for 48 hrs by CCK-8 assay. To be noted: SW1990, 48 h. The format is functional, cell-based.
For test [2], the system named is MDA-MB-231. Briefly: Inhibition of colony formation in human MDA-MB-231 cells assessed as reduction in number of colonies at 1 uM incubated for 8 days by crystal violet staining based assay. Format: functional, cell-based. To be noted: time 8.0 day.
The subject of test [3] is MDA-MB-231. Briefly: Induction of morphological changes in human MDA-MB-231 assessed as cell rounding at 0.5 to 2 uM incubated for 48 hrs by microscopic analysis. The format is functional, cell-based. Particulars: dose 0.5-2 µM.
In test [4] the test system is MDA-MB-231. The test is described as follows: Induction of morphological changes in human MDA-MB-231 assessed as cell contraction at 0.5 to 2 uM incubated for 48 hrs by microscopic analysis. Format: functional, cell-based. To be noted: dose 0.5-2 µM.
In test [5] the test system is MDA-MB-231. The test is described as follows: Antiproliferative activity against human MDA-MB-231 cells assessed as inhibition of cell proliferation incubated for 1 day by CCK-8 assay. Format: functional, cell-based. To be noted: MDA-MB-231, 24 h.
The test system of test [6] is HCT-116. Briefly: Antiproliferative activity against human HCT-116 cells assessed as inhibition of cell proliferation incubated for 1 day by CCK-8 assay. The format is functional, cell-based. To be noted: HCT-116, 24 h.
The test system of test [7] is HCT-116. The test is described as follows: Antiproliferative activity against human HCT-116 cells assessed as inhibition of cell proliferation incubated for 3 days by CCK-8 assay. Format: functional, cell-based. To be noted: HCT-116, 72 h.
Test [8] deals with HCT-116. Briefly: Antiproliferative activity against human HCT-116 cells assessed as inhibition of cell proliferation incubated for 4 days by CCK-8 assay. Format: functional, cell-based. Particulars: HCT-116, 96 h.
Test [9] relates to LoVo. The test is described as follows: Antiproliferative activity against human LoVo cells assessed as inhibition of cell proliferation incubated for 1 day by CCK-8 assay. Format: functional, cell-based. To be noted: 24 h.
For test [10], the system named is LoVo. Briefly: Antiproliferative activity against human LoVo cells assessed as inhibition of cell proliferation incubated for 4 days by CCK-8 assay. The format is functional, cell-based. Particulars: 96 h.
The target in test [11] is T1, Tubulin (Homo sapiens) (UniProt P68371+Q9H4B7+P0DPH7+P68366+Q13509+Q71U36+P04350+Q3ZCM7+P07437+P68363+Q9BQE3+Q6PEY2+Q13885+Q9BVA1+Q9BUF5). The test is described as follows: Disruption of microtubule network in human MDA-MB-231 cells assessed as reduced microtubule network at 1 to 2 uM incubated for 24 hrs by DAPI staining based fluorescence microscopic analysis. Format: cell-based. Particulars: dose 1-2 µM.

Test [12] addresses T1, Tubulin (Homo sapiens). The test is described as follows: Disruption of microtubule network in human MDA-MB-231 cells assessed as disorganized microtubule network at 1 to 2 uM incubated for 24 hrs by DAPI staining based fluorescence microscopic analysis. The format is cell-based. To be noted: dose 1-2 µM.
The target in test [13] is T1, Tubulin (Homo sapiens). The test is described as follows: Disruption of microtubule network in human MDA-MB-231 cells assessed as atrophy fiber structure at 1 to 2 uM incubated for 24 hrs by DAPI staining based fluorescence microscopic analysis. To be noted: dose 1-2 µM. Format: cell-based.
For test [14], the target named is T1, Tubulin (Homo sapiens). Briefly: Disruption of microtubule network in human MDA-MB-231 cells assessed as punctate fiber structure at 1 to 2 uM incubated for 24 hrs by DAPI staining based fluorescence microscopic analysis. Format: cell-based. Particulars: dose 1-2 µM.
Test [15] deals with T1, Tubulin (Homo sapiens). Briefly: Disruption of microtubule network in human MDA-MB-231 cells assessed as point-like fiber structure at 1 to 2 uM incubated for 24 hrs by DAPI staining based fluorescence microscopic analysis. Format: cell-based. Particulars: dose 1-2 µM.
In test [16] the test system is MDA-MB-231. Briefly: Induction of cell cycle arrest in human MDA-MB-231 cells assessed as increased proportion of cells at S phase at 0.5 to 2 uM by flow cytometric analysis. The format is functional, cell-based. Particulars: dose 0.5-2 µM. A general note: A flow cytometer gives signals particle by particle.
Test [17] deals with MDA-MB-231. The test is described as follows: Induction of apoptosis in human MDA-MB-231 cells assessed as upregulation of cleaved-caspase 3 level by Western blotting analysis. Format: functional, cell-based. Particulars: dose 0.5-2 µM. A general note: Immunoblotting shows a protein as a band on a membrane.
Test [18] deals with MDA-MB-231. Briefly: Induction of apoptosis in human MDA-MB-231 cells assessed as upregulation of Bax level by Western blotting analysis. The format is functional, cell-based. To be noted: dose 0.5-2 µM.
The subject of test [19] is Mitochondrial membrane. The test is described as follows: […] in human MDA-MB-231 cells at 0.5 uM by JC-1 fluorescent probe based flow cytometric analysis (reference value: 2.56 %).
Test [20] concerns Mitochondrial membrane. Briefly: […] in human MDA-MB-231 cells at 2.0 uM by JC-1 fluorescent probe based flow cytometric analysis (reference value: 2.56 %).
In test [21] the test system is MDA-MB-231. The test is described as follows: Induction of ROS generation in human MDA-MB-231 cells assessed as increase in green fluorescence at 2 uM incubated for 24 hrs by DCFH-DA staining based flow cytometric analysis (reference value: 62.3 %). The format is functional.
Test [22] deals with MDA-MB-231. Briefly: Induction of ROS generation in human MDA-MB-231 cells assessed as increase in green fluorescence incubated for 24 hrs by DCFH-DA staining based flow cytometric analysis relative to control. To be noted: dose 0.5-2 µM. Format: functional, cell-based.

IC50, inhibition and Activity data for one compound are collected here from ChEMBL document CHEMBL6096661, “Synthesis, biological evaluation and mechanism study of a novel indole-pyridine chalcone derivative as antiproliferative agent against tumor cells through dual targeting tubulin and HK2” (Eur J Med Chem, 2025).

Calls of active or inactive are those of the source. The calls are words filed in the database; no cut-off is given here.

Usually IC50 stands for the point on the concentration scale where inhibition reaches its midpoint.

On to `O=C(/C=C/c1cn(S(=O)(=O)c2ccc([N+](=O)[O-])cc2)c2ccc(N3CCOCC3)cc12)c1cccnc1`, for which the concentration for half-maximal inhibition (IC50) in the test on MDA-MB-231 [1] came out at 707 nM; with HT-1080, 872 nM; in the test with SW1990 it was 927 nM; in the test on MDA-MB-231 [5] it was 1640 nM; in the test on HCT-116 [6] it was 1930 nM; with HCT-116 [7], 393 nM. Moreover, the results for the concentration for half-maximal inhibition (IC50) with HCT-116 [8], with LoVo [9] and in the test on LoVo [10] were 299 nM, 1170 nM and 629 nM, respectively. Also, the inhibition result in the test with MDA-MB-231 [2] was “Active”. Besides, the outcome in the test with MDA-MB-231 [3], in the test with MDA-MB-231 [4], at Tubulin (Homo sapiens) [11], at Tubulin (Homo sapiens) [12], at Tubulin (Homo sapiens) [13] and at Tubulin (Homo sapiens) [14] was Active. Besides, the outcome at Tubulin (Homo sapiens) [15] and in the test on MDA-MB-231 [16] was Active. Moreover, the Activity entry is “Dose-dependent-effect” in the test with MDA-MB-231 [17]; “Dose-dependent-effect” in the test on MDA-MB-231 [18]; 5.5% in the test on Mitochondrial membrane [19]; 32.3% with Mitochondrial membrane [20]; 92.8% in the test with MDA-MB-231 [21]; “Dose-dependent-effect” with MDA-MB-231 [22].
